Laboratory results as given in patent US10307350B2, “Morphogenetically active amorphous calcium polyphosphate nanoparticles for therapeutic applications” (NanotecMARIN GmbH, priority 2014, dated 2019).

Tests used:
Format in all cases: cell-based, mouse
[1] = test system: MC3T3 cells; experiment: Cell proliferation / cell viability XTT assay; conditions: retinol 0.3 to 30 μM, absence of aCa-polyP-NP, 72 h
Protocol: (§1) Mouse calvaria cells MC3T3-E1 cells (ATCC-CRL-2593) are used for the experiments and cultivated in a-MEM (Gibco—Invitrogen) containing 20% fetal calf serum [FCS] (Gibco). The medium contains 2 mM L-glutamine, 1 mM Na-pyruvate and 50 μg/ml of gentamycin. […] Reaching 80% confluency, the cells are detached using trypsin/EDTA and continuously subcultured at a density of 5·10^3 cells/ml. The cells are seeded at a density of 5·10^3 cells/well. Medium/serum change was every 3 d.
The aCa-polyP-NP are added at the indicated concentration to the cultures, usually 3 μg/ml. Retinol is added in parallel; it is dissolved at 1 mg/ml ethanol and then diluted in DMSO [dimethyl sulfoxide] at the indicated concentrations. […]
Cell proliferation can be determined, for example, by a colorimetric method based on the tetrazolium salt XTT (Cell Proliferation Kit II; Roche). The absorbance is determined at […] and subtracted form the background values (500 nm). In the experiments described in Examples, the viable cells have been determined after 72 h.

[2] = test system: MC3T3 cells; experiment: Microscopic density of attached cells after 72 h; conditions: single component: aCa-polyP-NP 3 μg/ml or retinol 10 μM
Protocol: as §1
This synergistically-acting effect of the two test components can also be followed microscopically. In the absence of any of the components the density of the MC3T3 cells after the 72 h incubation is only low. […] Likewise low is the number of cells onto the plastic surface if 10 μM retinol is added.

[3] = test system: collagen type III (COL-III); experiment: Collagen expression RT-qPCR in MC3T3-E1 cells, collagen type III; conditions: single component: 3 μM retinol alone, or polyP sample in the absence of retinol; untreated 0.17±0.02
Protocol: Mouse calvaria cells MC3T3-E1 cells (ATCC-CRL-2593) are used for the experiments and cultivated in a-MEM (Gibco-Invitrogen) containing 20% fetal calf serum [FCS] (Gibco). The medium contains 2 mM L-glutamine, 1 mM Na-pyruvate and 50 μg/ml of gentamycin. […] Reaching 80% confluency, the cells are detached using trypsin/EDTA and continuously subcultured at a density of 5·10^3 cells/ml. The cells are seeded at a density of 5·10^3 cells/well. Medium/serum change was every 3 d. The aCa-polyP-NP are added at the indicated concentration to the cultures, usually 3 μg/ml. Retinol is added in parallel; it is dissolved at 1 mg/ml ethanol and then diluted in DMSO [dimethyl sulfoxide] at the indicated concentrations. […], Wang […], Kropf […]. […] Acta Biomaterialia 2011; 7:2661-2671) is studied in parallel. […] After a 5 d incubation period the cells were collected and subjected to RT-qPCR analyses. […] The effect of 3 μM retinol on Na-polyP and on different nanoparticles as well as on the retinol/nanospheres was tested in a comparative way. The expression level of collagen type III was determined by RT-qPCR (FIG. 11). The expression values are correlated to the expression of the house-keeping gene GAPDH. […] Then the ratios between the levels in the cells, exposed to retinol or the nanoparticles/nanospheres alone or together, have been calculated and plotted.

In the case of `CC1=C(/C=C/C(C)=C/C=C/C(C)=C/CO)C(C)(C)CCC1` [retinol, all-trans retinol], the “growth rate of the MC3T3 cells” value [1] is reported as “did not change significantly”, the “density of the cells attached to the substrate” value [2] is reported as “low” and the “collagen type III expression level correlated to GAPDH” value [3] is reported as 0.25±0.03.
